Measurements as given in paper PMC8620715, “Biological Activity of Triazolopyrimidine Copper(II) Complexes Modulated by an Auxiliary N-N-Chelating Heterocycle Ligands” (Molecules, 2021).

Columns and labels:
λ-DNA = assay: UV-visible absorption titration with λ-DNA; type: binding, bacteriophage lambda; conditions: 5 µM complex, increasing DNA
Protocol: To determine if the compounds can interact with DNA, the 48,500 base-pairs genomic DNA from bacteriophage lambda (λ-DNA, Promega, MA, USA) was used. A stock solution of 10 µM λ-DNA (base-pair concentration) was prepared in 10 mMTris/HCl buffer containing 1 mM NaCl, pH 8.
To determine the DNA intercalating ability of complexes (1) and (2), we used the 48,500 base-pairs genomic DNA from the bacteriophage lambda (λ-DNA, Promega, Madison, USA). A 10 µM λ-DNA (base-pair concentration) stock solution was prepared in 10 mM Tris/HCl buffer, pH 8, containing 1 mM NaCl. The UV-visible absorption titration experiments were done using a constant complex concentration (5 µM). […] After DNA addition, the solutions were left to equilibrate for 5 min at room temperature before recording the spectra with a Jasco V-630 spectrophotometer. Stock solutions of compounds (1) and (2) were prepared in DMSO (1 mM) and diluted to 5 µM in 10 mM Tris/HCl containing 1 mM NaCl, pH 8.
The UV-Vis absorption titration experiments were done, keeping the complex concentration constant ([…]) and increasing the concentration of λ-DNA in Tris-HCl/NaCl buffer solution at room temperature until a saturation state was achieved. After DNA addition, the solutions were allowed to equilibrate for 5 min at room temperature. The UV-Vis absorption spectra were recorded with a Jasco V-630 spectrophotometer, using a 10 mm quartz cell. […]

B16 cells [1] = assay: Lactate dehydrogenase (LDH) release assay, B16 cells; type: cell-based, mouse
Protocol: Membrane integrity after peptide treatment was assessed based on LDH release using a CytoTox 96 Non-Radioactive Cytotoxicity Assay (Promega), as previously described. […] Maximal LDH release was obtained by complete cell lysis induced by using 1% of Triton X-100. The absorption resulting from LDH activity was measured in a microplate reader Mithras 940 (Berthold) at 490 nm, and the % LDH was calculated as: [(corrected absorbance of the LDH released in treated cells)/(corrected absorbance of the total LDH released)] * 100%.

B16 cells [2] = assay: Cell morphology by fluorescence microscopy (phalloidin staining), B16 cells; type: cell-based, mouse; conditions: 24 h
Protocol: (§1) The morphological changes induced by the treatment of the BJ and B16 cell lines with the tested compounds at two different concentrations (2.5 and 10 µg/mL) applied for 24 h were investigated by fluorescence microscopy.
(§2) According to the manufacturer protocol, the cytoskeleton actin filaments of BJ and B16 cells were stained with phalloidin-FITC (Sigma-Aldrich, St. Louis, MO, USA). Briefly, cells were washed with PBS (5 min, 3 times), fixed for 5 min with 3% paraformaldehyde, washed three times with PBS, permeabilized with 0.1% Triton X-100 in PBS for 15 min, washed three times with PBS, stained with 20 μg/mL phalloidin-FITC at room temperature for 1 h and rewashed three times with PBS. The cell nucleus was stained with 8 μM of Hoechst 33342 solution for 10 min, washed three times with PBS, and finally, mounted and sealed on glass slides with FluorSave™ Reagent (Merck Millipore, Germany). The fluorescence images were acquired using an Andor DSD2 Confocal Unit (Andor, Ireland), mounted on an epifluorescence microscope, Olympus BX-51 (Olympus, Germany), equipped with a 40x and 100x objective and an appropriate DAPI/Hoechst filter cube (excitation filter 390/40 […], dichroic mirror 405 nm and emission filter 452/45 nm) and GFP/FITC filter cube (excitation filter 466/40 nm, dichroic mirror 488 nm and emission filter 525/54 nm).

λ-DNA/EB adduct = assay: Quenching of fluorescence of λ-DNA/ethidium bromide adduct; type: binding, bacteriophage lambda; conditions: λ-DNA pre-treated with EB, pH 8
Protocol: The binding of complexes (1) and (2) to DNA was assayed by monitoring the quenching of fluorescence emitted by λ-DNA/ethidium bromide (EB) adduct (λexcit = 510 nm, maximum emission at λem = 601 nm) in the presence of different concentrations of the tested compounds [68, 69]. The fluorescence spectra were recorded in the range of 550–750 nm using a Thermo Fischer Scientific Varioskan Flash spectral scanning multimode reader (Vantaa, Finland). The spectra were recorded in suitable plates using 5 nm excitation and emission slits for all measurements.
The binding of compounds to λ-DNA was assayed by monitoring the quenching of fluorescence emitted by λ-DNA/ethidium bromide (EB) adduct (λexcit = 510, maximum emission at λem = 601). The λ-DNA solution was added to the EB solution, prepared in the same buffer, then increasing concentrations of compounds were added to EB-DNA [52, 70]. The fluorescence spectra were recorded in the range of 550–750 nm using a Thermo Fischer Scientific Varioskan Flash spectral scanning multimode reader (Vantaa, Finland). The spectra were recorded in suitable plates using 5 nm excitation and emission slits for all measurements.

BJ cells = assay: Cell morphology by fluorescence microscopy (phalloidin staining), BJ cells; type: cell-based, human; conditions: 24 h
Protocol: as §1, §2

[3] = 2.5 µg/mL (2.84 μM and 2.76 μM for the complexes)

## Cc1cc(C)n2ncnc2n1.Cc1cc(C)n2ncnc2n1.Cc1cc(C)n2ncnc2n1.O.[Cu+2].[O-][Cl+3]([O-])([O-])[O-].[O-][Cl+3]([O-])([O-])[O-].c1ccc(-c2ccccn2)nc1 [Complex (1), [Cu(bpy)(dmtp)2(OH2)](ClO4)2·dmtp]
λ-DNA
  change of absorption spectrum on binding to λ-DNA: decrease in the absorption intensity
B16 cells [1]; B16, 24 h and 48 h
  membrane integrity (LDH release): did not affect the membrane integrity
B16 cells [2]; [3]
  morphological changes of B16 cells: not altered
λ-DNA/EB adduct
  fluorescence of λ-DNA/EB adduct on adding complex: fluorescence intensity decreased
BJ cells; 2.5 and 10 µg/mL
  morphological changes of BJ cells: no effect was observed

## Cc1cc(C)n2ncnc2n1.Cc1cc(C)n2ncnc2n1.Cc1cc(C)n2ncnc2n1.O.[Cu+2].[O-][Cl+3]([O-])([O-])[O-].[O-][Cl+3]([O-])([O-])[O-].c1cnc2c(c1)ccc1cccnc12 [Complex (2), [Cu(phen)(dmtp)2(OH2)](ClO4)2·dmtp]
λ-DNA
  change of absorption spectrum on binding to λ-DNA: decrease in the absorption intensity
B16 cells [1]; B16, 24 h
  LDH release: 60%
B16 cells [1]; B16, 48 h
  LDH release: 100%
B16 cells [2]; [3]
  morphological changes of B16 cells: not altered
B16 cells [2]; 10 μg/mL (11.05 µM)
  morphological changes of B16 cells: significant changes
λ-DNA/EB adduct
  fluorescence of λ-DNA/EB adduct on adding complex: fluorescence intensity decreased
BJ cells; 10 μg/mL (11.05 µM)
  morphological changes of BJ cells: affected the cellular morphology
